Reference: ChEMBL document CHEMBL4813919, “Development of programmable gemcitabine-GnRH pro-drugs bearing linker controllable "click" oxime bond tethers and preclinical evaluation against prostate cancer” (Eur J Med Chem, 2021)
Where a SMILES comes first, the peptide text is derived from it. [ ]: non-standard residue; d: D form. The star is where a group is joined. ξ: configuration not given here. X1 = Nc1ccn(C2OC(COC(=O)CO/N=C/C(=O)*)C(O)C2(F)F)c(=O)n1; X2 = O=C(CO/N=C/C(=O)*)Nc1ccn(C2OC(CO)C(O)C2(F)F)c(=O)n1; X3 = Nc1ccn(C2OC(CO)C(OC(=O)CO/N=C/C(=O)*)C2(F)F)c(=O)n1; ξAla(indol-2-yl) = NC(Cc1cc2ccccc2[nH]1)C(=O)O; pGlu = O=C1CC[CH](C(=O)O)N1

Key:
[1] = Drug uptake in human DU-145 cells assessed as release of gemcitabine at 10 uM measured upto 8 hrs by LC-MS/MS method; type: ADME, cell-based; details: du-145, 8 h
[2] = Drug uptake in human DU-145 cells at 10 uM measured upto 8 hrs by LC-MS/MS method; type: ADME, cell-based; details: du-145, 8 h
[3] = Drug metabolism in human plasma assessed as release of gemcitabine at 1 ug/ml measured after 4 hrs by LC-MS/MS method; type: ADME, cell-free; details: dose 1 µg/ml
[4] = Stability in human plasma at 1 ug/ml measured after 4 hrs by LC-MS/MS method; type: ADME, cell-free; details: at 1 µg/mL
[5] = Drug metabolism in human DU-145 cells assessed as release of gemcitabine at 1 uM measured after 24 hrs by LC-MS/MS method; type: ADME, cell-based; details: du-145, 24 h
[6] = Stability in human DU-145 cells at 1 uM measured upto 10 hrs by LC-MS/MS method; type: ADME, cell-based; details: du-145, 10 h
DU-145 = test: Antiproliferative activity against human DU-145 cells measured after 72 hrs by MTT assay; type: functional, cell-based; details: DU-145, 72 h
PC-3 = test: Antiproliferative activity against human PC-3 cells measured after 72 hrs by MTT assay; type: functional, cell-based; details: PC-3, 72 h
[7] = In vivo agonist activity at GnRH-R in C57BL6/N mouse assessed as release of testosterone in blood at 639.21 ug/kg, ip measured after 2 hrs by LC-MS/MS analysis; type: functional; details: dose 639.21 µg/kg
[8] = Metabolic stability in mouse liver microsomes assessed as GOXG1-met2 formation at 6.13 uM incubated for 1 hr by LC-MS analysis; type: ADME, Microsome
[9] = Metabolic stability in human liver microsomes assessed as GOXG1-met2 formation at 6.13 uM incubated for 1 hr by LC-MS analysis; type: ADME, Microsome
[10] = Prodrug conversion in mouse C57BL/6N assessed as gemcitabine release at 10 mg/kg, IP measured after 15 mins by LC-MS/MS analysis; type: ADME, organism-based; details: in vivo, 0.25 h
[11] = Prodrug conversion in mouse C57BL/6N assessed as gemcitabine release at 10 mg/kg, IP measured after 30 mins by LC-MS/MS analysis; type: ADME, organism-based; details: in vivo, 0.5 h
[12] = Prodrug conversion in mouse C57BL/6N assessed as gemcitabine release at 10 mg/kg, IP measured 1 to 2.5 hrs by LC-MS/MS analysis; type: ADME, organism-based; details: in vivo, time 1-2.5 hrs
[13] = target: T1, Gonadotropin-releasing hormone receptor (Homo sapiens, UniProt P30968); test: Displacement of [125I]-DTrp6-LHRH from human GnRH-R by radioligand binding assay
T1 sequence (P30968 whole entry): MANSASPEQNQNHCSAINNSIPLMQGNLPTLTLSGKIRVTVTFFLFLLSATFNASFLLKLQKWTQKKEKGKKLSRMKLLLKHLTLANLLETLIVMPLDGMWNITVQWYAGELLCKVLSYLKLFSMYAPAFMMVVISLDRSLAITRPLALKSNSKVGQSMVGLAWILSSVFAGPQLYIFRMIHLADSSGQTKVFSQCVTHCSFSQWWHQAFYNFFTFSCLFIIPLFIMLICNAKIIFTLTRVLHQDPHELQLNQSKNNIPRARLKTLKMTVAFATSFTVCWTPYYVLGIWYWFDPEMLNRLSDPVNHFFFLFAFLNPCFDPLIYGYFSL

[14] = In vivo agonist activity at GnRH-R in C57BL6/N mouse assessed as release of testosterone in blood at 483.6 ug/kg, ip measured after 2 hrs by LC-MS/MS analysis; type: functional; details: dose 483.6 µg/kg
[15] = In vivo agonist activity at GnRH-R in C57BL6/N mouse assessed as release of testosterone in blood at 105.2 ug/kg, ip measured after 2 hrs by LC-MS/MS analysis; type: functional; details: dose 105.2 µg/kg
[16] = Drug uptake in C57BL/6N mouse blood at 10 mg/kg, IP measured after 30 mins of dosing by LC-MS/MS analysis; type: ADME, organism-based; details: whole blood, read-out: Drug uptake

SMILES	Drug uptake [1]	Drug uptake [2]	Drug metabolism [3]	Stabilty [4]	Stabilty [5]	Stabilty [6]	IC50 (DU-145) [nM]	IC50 (PC-3) [nM]	Drug metabolism [8]	Drug metabolism [9]	Drug metabolism [10] [ng/mL]	Drug metabolism [11] [ng/mL]	Drug metabolism [12] [ng/mL]	IC50 [13] [nM]	concentration at 0.5 h [16] [ng/mL]	Activity [7] [ng/mL]	Activity [14] [ng/mL]	Activity [15] [ng/mL]
CC(C)CC(NC(=O)C(CCCCNC(=O)/C=N/OCC(=O)OC1C(CO)OC(n2ccc(N)nc2=O)C1(F)F)NC(=O)C(Cc1ccc(O)cc1)NC(=O)C(CO)NC(=O)C(Cc1cc2ccccc2[nH]1)NC(=O)C(Cc1c[nH]cn1)NC(=O)C1CCC(=O)N1)C(=O)NC(CCCNC(=N)N)C(=O)N1CCCC1C(=O)NCC(N)=O (stereo unspecified) ([pGlu]H[ξAla(indol-2-yl)]SYK(X3)LRPG-NH2; configuration not given here)	Active	Active	Metabolite_Detected	Unstable	Unstable	Unstable	494	675	–	–	–	–	–	–	–	–	–	–
CCNC(=O)[C@@H]1CCCN1C(=O)[C@H](CCCNC(=N)N)NC(=O)[C@H](CC(C)C)NC(=O)[C@@H](CC(C)C)NC(=O)[C@H](Cc1ccc(O)cc1)NC(=O)[C@H](CO)NC(=O)[C@H](Cc1c[nH]c2ccccc12)NC(=O)[C@H](Cc1c[nH]cn1)NC(=O)[C@@H]1CCC(=O)N1 [LEUPROLIDE]	–	–	–	–	–	–	–	–	–	–	–	–	–	–	–	–	40.9	–

Second part, led by results:

Drug uptake [1]	Drug uptake [2]	Drug metabolism [3]	Stabilty [4]	Stabilty [5]	Stabilty [6]	IC50 (DU-145) [nM]	IC50 (PC-3) [nM]	Drug metabolism [8]	Drug metabolism [9]	Drug metabolism [10] [ng/mL]	Drug metabolism [11] [ng/mL]	Drug metabolism [12] [ng/mL]	IC50 [13] [nM]	concentration at 0.5 h [16] [ng/mL]	SMILES	Activity [7] [ng/mL]	Activity [14] [ng/mL]	Activity [15] [ng/mL]
Active	Active	Metabolite_Detected	Stable	Stable	Stable	611	754	Metabolite_Detected	Metabolite_Detected	406	385	600	1.9	–	CC(C)CC(NC(=O)C(CCCCNC(=O)/C=N/OCC(=O)OCC1OC(n2ccc(N)nc2=O)C(F)(F)C1O)NC(=O)C(Cc1ccc(O)cc1)NC(=O)C(CO)NC(=O)C(Cc1cc2ccccc2[nH]1)NC(=O)C(Cc1c[nH]cn1)NC(=O)C1CCC(=O)N1)C(=O)NC(CCCNC(=N)N)C(=O)N1CCCC1C(=O)NCC(N)=O (stereo unspecified) ([pGlu]H[ξAla(indol-2-yl)]SYK(X1)LRPG-NH2; configuration not given here)	40.1	–	–
Active	Active	Metabolite_Detected	Stable	Stable	Stable	590	833	–	–	–	–	–	–	–	CC(C)CC(NC(=O)C(CCCCNC(=O)/C=N/OCC(=O)Nc1ccn(C2OC(CO)C(O)C2(F)F)c(=O)n1)NC(=O)C(Cc1ccc(O)cc1)NC(=O)C(CO)NC(=O)C(Cc1cc2ccccc2[nH]1)NC(=O)C(Cc1c[nH]cn1)NC(=O)C1CCC(=O)N1)C(=O)NC(CCCNC(=N)N)C(=O)N1CCCC1C(=O)NCC(N)=O (stereo unspecified) ([pGlu]H[ξAla(indol-2-yl)]SYK(X2)LRPG-NH2; configuration not given here)	–	–	–
–	–	–	–	–	–	399	546	–	–	–	–	–	–	685	Nc1ccn([C@@H]2O[C@H](CO)[C@@H](O)C2(F)F)c(=O)n1 [GEMCITABINE]	–	–	0.3
